Experimental data as given in patent US20030229132A1, “Small molecule modulators of apoptosis” (priority 2002, published 2003).

B1: Fas Ligand: induces apoptosis which proceeds through the caspase-8 pathway (protein, UniProt P48023 130-281, looked up)
Tumor necrosis factor ligand …: QIGHPSPPPEKKELRKVAHLTGKSNSRSMPLEWEDTYGIVLLSGVKYKKGGLVINETGLYFVYSKVYFRGQSCNNLPLSHKVYMRNSKYPQDLVMMEGKMMSYCTTGQMWARSSYLGAVFNLTSADHLYVNVSELSLVNFEESQTFFGLYKL

Legend:
[1] = test system: Jurkat cells; assay: DNA fragmentation analysis in Jurkat cells; format: cell-based, human; conditions: 50 μM compound or 1 μM staurosporin, 8 hr
[2] = test system: caspase-3 (DEVDase activity); assay: DEVDase fluorescence screen in HeLa cell S-100 cytoplasmic extracts; format: biochemical; conditions: in vitro fluorescence assay, HeLa S-100 extracts with cyto c
Text: In order to identify compounds that modulate apoptosis, a chemical genetics approach was utilized to screen for molecules that target components of the apoptosis pathway (see, T. U. Mayer et al., Science 286, 971-4 (1999)). An in vitro screen using cytoplasmic extracts was adapted for apoptosis to a 96-well format and used to test an in-house library of ˜3500 compounds (see, T. Fernandes-Alnemri et al, Proc Natl Acad Sci USA 93, 7464-9 (1996); X. Liu, C. N. Kim, J. Yang, R. Jemmerson, X. Wang, Cell 86, 147-57 (1996); L. M. Leoni et al., Proc Natl Acad Sci USA 95, 9567-71 (1998)). Briefly, individual compounds were added to HeLa cell S-100 cytoplasmic extracts at a final concentration of 1 mM and apoptosis was induced by adding bovine heart cyto c (HeLa cell cytoplasmic extracts were prepared according to previously published reports (see, P. Li et al., Cell 91, 479-89 (1997)). Compounds were distributed into 96-well microtiter plates at a final concentration of 1 mM. To each well was added 250 μg of total protein from cytoplasmic extracts in HEB buffer (50 mM Hepes pH 7.4, 50 mM KCl, 5 mM EGTA, 2 mM MgCl), with 2 mM DTT, 2 μM cyto c, and 0.5 μM DEVD-AFC substrate in a total of 150 μL. Plates were incubated at 37° C. and fluorescence was read in a LJL Biosystems plate reader at 10 min intervals). Activation of caspase-3 was monitored by cleavage of a fluorogenic substrate, Asp-Glu-Val-Asp-7-amino-4-trifluoromethylcoumarin (DEVDase activity). As designed, the DEVDase fluorescence screen encompasses the release of cyto c from the mitochondria to the activation of caspase-3. Possible targets include cyto c, Apaf-1, caspase-9, caspase-3, inhibitors of apoptosis (IAPs), and possible unidentified components present in the cytosol.

[3] = test system: Jurkat cells; assay: Caspase-3 activation in Jurkat cells (immunoblot); format: cell-based, human; conditions: 50 μM compound or 1 μM staurosporin, 6 hr
Description: (§1) (C) DNA fragmentation analysis. […] Cell viability assay.
(§2) Compounds were then tested for their ability to induce apoptosis in live cells. The ability of the compounds to activate caspase-3 in a Jurkat cell line was first assayed. […] This same pattern was seen when we assayed for the cleavage of poly (ADP-ribose) polymerase (PARP), a cellular substrate of caspases-3 and -7 (see, D. W. Nicholson, Cell Death Differ 6, 1028-42 (1999)). Upon apoptosis, PAR-P is cleaved from a 116 kD to an 85 kD protein.

[4] = test system: Jurkat cells; assay: PARP cleavage in Jurkat cells (immunoblot); format: cell-based, human; conditions: 50 μM compound or 1 μM staurosporin, 6 hr
Description: as §1, §2

[5] = test system: NCI-H23; assay: Cell viability, NCI-H23; format: cell-based, human; conditions: NCI-H23, lung
[6] = test system: Normal (PBL) and cancer (Jurkat, Molt-4, CCRF-CEM) lymphocyte cell lines; assay: Cell viability, normal and cancer lymphocyte cell lines compared; conditions: all four lymphocyte cell lines, normal and cancerous
Text: (§3) Samples were then probed by immunoblot for (A) caspase-3 activation or (B) cleavage of PARP. (C) DNA fragmentation analysis. […] The DNA was isolated by phenol/chloroform extraction, separated on a 2% agarose gel and visualized by ethidium bromide staining. Cell viability assay.
(§4) Normal cell lines include peripheral blood lymphocytes (PBL) isolated from donated human blood, non-transformed mammary fibroblasts (MCF-10A), human mammary epithelial cells (HMEC), human umbilical vein endothelial cells (HUVEC), and human prostate epithelial cells (PREC). Transformed cell lines include cell lines from leukemia, breast, lung, ovarian, and epidermal cancers (Table 1).

[7] = test system: peripheral blood lymphocytes (PBL); assay: Cell viability, PBL; format: cell-based, human; conditions: normal cell
Text: as §3, §4

[8] = test system: CCRF-CEM; assay: Cell viability, CCRF-CEM; format: cell-based, human; conditions: leukemia
Text: as §3, §4

[9] = test system: procaspase-3 processing; assay: Procaspase-3 processing by capture ELISA in HeLa cell extract (cyto c / compound titration); format: biochemical; conditions: cyto c titrated into HeLa cell extract, no compound; read-out: concentration for half-maximal activation (AC50) of procaspase-3 processing
Description: FIG. 2 depicts activity of compounds 1-5 in cell lysates. (A) Compound activation is cyto c dependent. Cyto c was titrated into S-100 cytoplasmic extracts with vehicle alone or 20 μM compound and procaspase-3 processing was assayed by capture ELISA. (B) Compound activation is dose-dependent. Compounds or vehicle were titrated into S-100 cytoplasmic extracts at a cyto c concentration of 1.25 μM and procaspases-3 processing was assayed by capture ELISA. (C) Immunoblot assay of compound-induced caspase activation. Samples at the 20 μM compound concentration in (B) were separated on SDS-polyacrylamide gel and transferred to polyvinyl membrane. […]
In order to determine if these compounds required cyto c for caspase-3 activation, cyto c was titrated into HeLa cell extract in the presence and absence of compounds and procaspase-3 processing was monitored by capture ELISA (Cyto c was titrated into lysates as detailed in the screening procedure. Capture ELISA assay for active caspase-3 was adapted from Aragones et al., www.biocarta.com. Briefly, a mouse monoclonal antibody recognizing both full-length and cleaved caspase-3 (capture antibody, Transduction Laboratories) was immobilized onto an immunosorp plate and blocked with 5% milk, and 25 μL of the caspase activation reaction in 75 μL Superblock (Pierce) was added. […]

[10] = test system: Jurkat cells transfected with Apaf-1 siRNA; assay: Viability of Jurkat cells transfected with Apaf-1 siRNA (MTT test); format: cell-based, human; conditions: 20 nM Apaf-1 siRNA 48 hr, then 24 hr incubation
Description: (A) Jurkat cells were transfected with 20 nM Apaf-1 siRNA for 48 hr and half the cells were lysed and probed with antibodies to Apaf-1, caspase-9, and caspase-3. The other half of the cells was incubated with varying concentrations of (B), compound 2 or (C), Fas ligand for 24 hr and assayed for viability by MTT test. (D) SK-OV-3 cells were transiently transfected with Apaf-1 or vector control for 24 hr and then incubated with vary concentrations of compound 2 and assayed for viability. (E) Cyto c was titrated into SK-OV-3 cell lysate in the presence of 300 μM dATP, with or without 150 nM purified Apaf-1 and 20 μM compound 2 as indicated.
In order to verify that compound 2 targets the apoptosome as a function of its cytotoxic activity, small interfering RNA (siRNA) was used to silence the expression of Apaf-1 in Jurkat cells. Sense and anti-sense oligonucleotides corresponding to nucleotides 978-998 of Apaf-1 (([…]) as reported by Lassus et al. Science 297, 1352-4. (2002)), were purchased from Dharmacon. Transfection of siRNA into Jurkat cells was accomplished using GeneSilencer (Gene Therapy Systems) according to manufacturer's instructions. There was a significant decrease in the level of expression of Apaf-1 48 hr after transfection of an Apaf-1 specific siRNA, without affecting the expression of caspases in the pathway (FIG. 5A).

Molecule | DNA fragmentation [1] | activation of DEVDase activity [2] | processing of procaspase-3 [3] | cleavage of PARP [4] | further results
CCOC(=O)NCc1ccc(Cl)c(Cl)c1 [Compound 1] | less pronounced effect | most active | no processing | – | –
O=C1Cc2ccccc2N1Cc1ccc(Cl)c(Cl)c1 [Compound 3] | induced DNA fragmentation | strongly activated DEVDase activity | significant processing | limited processing | –
CN[C@@H]1C[C@H]2O[C@@](C)([C@@H]1OC)n1c3ccccc3c3c4c(c5c6ccccc6n2c5c31)C(=O)NC4 [Staurosporin, reference compound] | “laddering” effect | – | significant processing | complete cleavage | IC50 [5]: 85 nM; susceptibility to cytotoxicity [6]: equally susceptible; IC50 [7]: 69 nM; IC50 [8]: 69 nM
cyto c: bovine heart cyto c added to cytoplasmic extracts to induce apoptosis | – | – | – | – | AC50 [9]: ~1750 nM
B1 | – | – | – | – | cell killing after silencing of Apaf-1 [10]: still sensitive
